Laboratory results taken from patent publication US9700044B2, “Symmetrical marinopyrrole derivatives as potential antibiotic agents” (priority 2013, dated 2017).
≈ marks a conversion by molar mass, not a printed value. Read-outs that look alike come from different tables or passages of the source.

Assays:
[1] = test system: Methicillin-resistant Staphylococcus aureus (MRSA); assay: MIC by agar dilution, MRSA clinical isolates; assay type: cell-based; conditions: MRSA
Excerpt: (§1) A panel of multiple resistance Gram-positive and Gram-negative pathogens listed in Tables 1 and 2 was used to evaluate the antimicrobial activity of marinopyrrole derivatives (Chart 1) with vancomycin as a positive control. Except for those marked with WHO, all pathogens were isolated between 2008 and 2010 in hospitals located in Beijing; Guangzhou; Sichuan, Shandong and Jiangsu Province. Determination of the minimum inhibitory concentration (MIC) was done by the guidelines of the Clinical and Laboratory Standards Institute (Clinical and Laboratory Standards Institute, Performance standards for antimicrobial susceptibility testing, seventeenth informational supplement. 2007, 27, M100-S17). The susceptibility tests of a bacterial strain to a marinopyrrole derivative were performed by an agar dilution method. Briefly, each sterile petri dish contained a final volume of 15 mL comprising 1 mL of a marinopyrrole derivative and 14 mL of Mueller-Hinton broth. The concentrations of a marinopyrrole derivative are 128, 64, 32, 16, 8, 4, 2, 1, 0.5, 0.25, 0.125, 0.06, 0.03, 0.015 and 0.008 μg/mL. The petri dish containing the broth with different concentration of antibiotics was first inoculated with 10^5 CFU/mL (Denley A400, United Kingdom) and the culture was then incubated with shaking at 35-37° C. for 18-20 h. The potency of the compound was determined and expressed as minimum inhibitory concentration (MIC) in μg/mL. The MIC was determined as the lowest concentration of antibiotic that inhibited visible bacterial growth.

[2] = test system: P. aeruginosa; assay: MIC by agar dilution, P. aeruginosa; assay type: cell-based
Excerpt: as §1

[3] = test system: E. coli; assay: MIC by agar dilution, E. coli; assay type: cell-based
Excerpt: as §1

[4] = test system: Oxacillin-resistant Staphylococcus aureus (WHO-25); assay: MIC by agar dilution, ORSA (WHO-25); assay type: cell-based
Excerpt: as §1

[5] = test system: Highly vancomycin-resistant Enterococci faecalis (VRE); assay: MIC by agar dilution, highly resistant VRE; assay type: cell-based
Excerpt: as §1

[6] = test system: Methicillin-resistant Staphylococcus epidermidis (MRSE); assay: MIC by agar dilution, MRSE clinical isolates; assay type: cell-based; conditions: MRSE
Excerpt: as §1

[7] = test system: K. penumonia; assay: MIC by agar dilution, K. penumonia; assay type: cell-based, K. pneumonia
Excerpt: as §1

[8] = test system: Moderately vancomycin-resistant Enterococci faecium with the VanA gene (WHO-3); assay: MIC by agar dilution, VRE (WHO-3); assay type: cell-based
Excerpt: as §1

[9] = test system: Methicillin-susceptible Staphylococcus aureus (MSSA); assay: MIC by agar dilution, MSSA clinical isolates; assay type: cell-based; conditions: MSSA
Excerpt: as §1

[10] = test system: Methicillin-resistant Staphylococcus aureus with the mec A gene and PBP2a (WHO-31); assay: MIC by agar dilution, MRSA (WHO-31); assay type: cell-based
Excerpt: as §1

[11] = Staphylococcus aureus, Table 1, 10 isolates
[12] = Staphylococcus aureus, Table 2, data from 8 isolates
[13] = Staphylococcus aureus, Table 3, data from 8 isolates

COc1cc(OC)c(C(=O)c2[nH]c(Cl)c(Cl)c2-n2c(C(=O)c3cc(Cl)c(OC)cc3OC)cc(Cl)c2Cl)cc1Cl [Compound 1n]
MIC ([1]; Table 1, 10 isolates): >64 µg/mL | MIC ([2]; Table 1, P. aeruginosa, 4 isolates, value over three Gram-negative pathogens): >64 µg/mL | MIC ([3]; Table 1, E. coli, 4 isolates, value over three Gram-negative pathogens): >64 µg/mL | MIC ([4]; Table 1, ORSA (WHO-25), 1 isolate): >64 µg/mL | MIC ([5]; Table 1, VRE (highly vancomycin-resistant E. faecalis), 2 isolates): >64 µg/mL | MIC ([6]; Table 1, 3 isolates): >64 µg/mL | MIC ([7]; Table 1, K. penumonia, 4 isolates, value over three Gram-negative pathogens): >64 µg/mL | MIC ([8]; Table 1, VRE (WHO-3), 1 isolate): >64 µg/mL | MIC ([9]; Table 1, 10 isolates): >64 µg/mL | MIC ([10]; Table 1, MRSA (WHO-31), 1 isolate): >64 µg/mL

CN[C@H](CC(C)C)C(=O)N[C@H]1C(=O)N[C@@H](CC(N)=O)C(=O)N[C@H]2C(=O)N[C@H]3C(=O)N[C@H](C(=O)N[C@H](C(=O)O)c4cc(O)cc(O)c4-c4cc3ccc4O)[C@H](O)c3ccc(c(Cl)c3)Oc3cc2cc(c3O[C@@H]2O[C@H](CO)[C@@H](O)[C@H](O)[C@H]2O[C@H]2C[C@](C)(N)[C@H](O)[C@H](C)O2)Oc2ccc(cc2Cl)[C@H]1O [Van, Vancomycin, reference compound]
MIC [1, 11]: 0.25 to 0.5 µg/mL (≈ 0.173 to 0.345 µM) | MIC [1, 12]: 0.5 to 1 µg/mL (≈ 0.345 to 0.69 µM) | MIC [1, 13]: 0.5 to 1 µg/mL (≈ 0.345 to 0.69 µM) | MIC ([2]; Pseudomonas aeruginosa): > 128 µg/mL | MIC ([3]; Escherichia coli): > 128 µg/mL | MIC ([4]; Staphylococcus aureus, Table 1, ORSA (WHO-25), 1 isolate): 2 µg/mL (≈ 1.38 µM) | MIC ([4]; Staphylococcus aureus, Table 3, WHO-25): 4 µg/mL (≈ 2.76 µM) | MIC ([4]; Staphylococcus aureus, Table 2, WHO-25): 4 µg/mL (≈ 2.76 µM) | MIC [5]: > 128 µg/mL | MIC ([6]; Staphylococcus epidermidis, Table 1, 3 isolates): 0.13 to 0.5 µg/mL (≈ 0.0897 to 0.345 µM) | MIC ([6]; Staphylococcus epidermidis, Table 2, data from 4 isolates): 0.5 to 1 µg/mL (≈ 0.345 to 0.69 µM) | MIC ([6]; Staphylococcus epidermidis, Table 3, data from 4 isolates): 0.5 to 1 µg/mL (≈ 0.345 to 0.69 µM) | MIC ([7]; Klebsiella pneumoniae): > 128 µg/mL | MIC ([8]; Enterococcus): > 128 µg/mL | MIC ([8]; Enterococcus, VRE): > 64 µg/mL | MIC ([8]; Table 3, WHO-3): >128 µg/mL | MIC [9, 11]: 0.5 to 1 µg/mL (≈ 0.345 to 0.69 µM) | MIC [9, 12]: 1 µg/mL (≈ 0.69 µM) | MIC [9, 13]: 1 µg/mL (≈ 0.69 µM) | MIC ([10]; Staphylococcus aureus): 1 µg/mL (≈ 0.69 µM) | MIC ([10]; Staphylococcus aureus, MRSA): 0.5 µg/mL (≈ 0.345 µM) | MIC ([10]; Table 3, WHO-31): 1 µg/mL (≈ 0.69 µM)
